Tests used:
Adenosine receptor A1 = biological target: T1, Adenosine receptor A1 (Rattus norvegicus, UniProt P25099); experiment: Binding affinity towards the adenosine A1 receptor in cerebral cortices of Sprague-Dawley male rats using [3H]CHA as radioligand.
T1 sequence (P25099 whole entry): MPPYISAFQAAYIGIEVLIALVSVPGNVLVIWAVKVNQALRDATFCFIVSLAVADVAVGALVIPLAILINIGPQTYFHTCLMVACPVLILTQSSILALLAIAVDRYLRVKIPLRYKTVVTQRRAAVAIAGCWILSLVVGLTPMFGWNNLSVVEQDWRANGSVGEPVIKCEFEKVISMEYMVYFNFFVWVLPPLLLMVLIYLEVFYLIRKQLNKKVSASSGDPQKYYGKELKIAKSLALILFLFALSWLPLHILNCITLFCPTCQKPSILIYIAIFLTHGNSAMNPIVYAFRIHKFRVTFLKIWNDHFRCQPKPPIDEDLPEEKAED

Rattus norvegicus [1] = organism: Rattus norvegicus; experiment: Minimal effective dose in an rat anti-immobility effect using behavioral despair test; type: functional; settings: read-out: MED
Adenosine A2 receptor = Adenosine A2 receptor (Rattus norvegicus, UniProt P29276+P30543)
Rattus norvegicus [2] = organism: Rattus norvegicus; experiment: Evaluated for Ca++ independent phosphodiesterase activity.; type: functional
Phosphodiesterase 1 = Phosphodiesterase 1 (Rattus norvegicus, UniProt Q63421+Q9EPR9+Q01066); experiment: Evaluated for Ca++ dependent phosphodiesterase activity.; type: functional

| Compound | IC50 (Adenosine receptor A1) [µM] | IC50 (Adenosine A2 receptor) | IC50 (Rattus norvegicus [2]) [µM] | IC50 (Phosphodiesterase 1) | minimal effective dose (Rattus norvegicus [1]) [mg/kg] |
| --- | --- | --- | --- | --- | --- |
| CC(C)Nc1nc2ccccc2n2cnnc12 | 4.1 | 17 µM |  |  | 3.2 |
| CC(C)Nc1nc2ccc(Cl)cc2n2c(-c3ccccc3)nnc12 | 3.2 | > 100 µM | > 10 | > 10 µM | < 32 |
| Nc1nc2ccc(Cl)cc2n2c(-c3ccccc3)nnc12 | 0.27 | 0.021 µM |  |  | > 32 |
| CCN(CC)c1nc2ccc(Cl)cc2n2c(C(F)(F)F)nnc12 | > 100 | > 100 µM |  |  | ≤ 32 |
| CCCN(CCC)c1nc2ccc(F)cc2n2c(C(F)(F)F)nnc12 |  |  | > 10 | >> 10 uM | > 32 |
| CCc1nnc2c(N(CC)CC)nc3ccccc3n12 | 7.4 |  | 3.7 | 0.1 µM | 3.2 |
| CCc1nnc2c(N)nc3cc(Cl)c(Cl)cc3n12 | 0.11 | 0.023 µM |  |  | 3.2 |
| CCNc1nc2cc(Cl)ccc2n2c(CC)nnc12 |  |  | 0.2 | > 10 µM | 3.2 |
| CCNc1nc2cc(F)ccc2n2cnnc12 | 11 | 26 µM |  |  | 32 |
| CCN(CC)c1nc2ccccc2n2cnnc12 | 27 | 42 µM | 3 | 1.2 µM | 10 |
| CC(C)Nc1nc2ccc(F)cc2n2c(O)nnc12 | 0.73 | 3.5 µM |  |  | > 32 |
| CCNc1nc2ccc(F)cc2n2cnnc12 | 3.2 | 17 µM |  |  | 3.2 |
| Clc1ccc2nc(N3CCNCC3)c3nnc(-c4ccccc4)n3c2c1 |  |  | 10 | >> 10 uM | > 32 |
| CC(C)Nc1nc2cc(F)ccc2n2cnnc12 | 4.5 | 13 µM | 6 | > 100 µM | > 32 |
| Nc1nc2ccccc2n2cnnc12 | 4.6 | 0.4 µM |  |  | 3.2 |
| Nc1nc2ccc(F)cc2n2cnnc12 | 2.9 | 1 µM | 4 | > 10 µM | ≤ 32 |
| CCc1nnc2c(N[C@@H](C)Cc3ccccc3)nc3ccc(Cl)cc3n12 | 0.68 | > 100 µM |  |  | > 32 |
| CCNc1nc2ccccc2n2cnnc12 | 29 | 110 µM |  |  | 3.2 |
| c1ccc2c(c1)nc(N1CCNCC1)c1nncn12 | > 10 |  | 7 | 3 µM | > 32 |
| Nc1nc2ccc(F)cc2n2c(O)nnc12 | 0.84 | 0.7 µM |  |  | 10 |
| Nc1nc2ccc(Cl)cc2n2cnnc12 | 3.4 | >= 1 uM |  |  | 10 |
| Nc1nc2cc(F)ccc2n2cnnc12 | 6.1 | 0.56 µM |  |  | ≤ 32 |
| CCNc1nc2ccc(OC)cc2n2c(CC)nnc12 | 0.71 | 4.5 µM |  |  | > 32 |
| Cn1c(=O)c2c(ncn2C)n(C)c1=O [CAFFEINE] |  |  | 170 | 70 µM | 3.2 |

Further molecules by falling IC50 (Adenosine receptor A1), results first:

| IC50 (Adenosine receptor A1) [µM] | IC50 (Adenosine A2 receptor) | IC50 (Rattus norvegicus [2]) [µM] | IC50 (Phosphodiesterase 1) | Compound | minimal effective dose (Rattus norvegicus [1]) [mg/kg] |
| --- | --- | --- | --- | --- | --- |
| 0.68 | 6.9 µM | 4.5 | > 100 µM | CC(C)Nc1nc2ccc(F)cc2n2cnnc12 | ≤ 3.2 |
| 0.66 | 6.4 µM | 0.3 | 3 µM | CCc1nnc2c(NC(C)C)nc3ccccc3n12 | 10 |
| 0.58 | 0.17 µM | 40 | >> 10 uM | CCc1nnc2c(N)nc3cc(F)ccc3n12 | 3.2 |
| 0.44 | 48 µM |  |  | CCc1nnc2c(NC(C)C)nc3cc(F)ccc3n12 | ≥ 32 |
| 0.38 | > 100 µM |  |  | CCc1nnc2c(Nc3ccccc3)nc3ccc(Cl)cc3n12 | > 32 |
| 0.37 | 3.3 µM |  |  | CC(C)Nc1nc2ccc(Cl)cc2n2cnnc12 | 3.2 |
| 0.29 | 0.1 µM |  |  | Nc1nc2ccc(F)cc2n2c(C(F)(F)F)nnc12 | 1 |
| 0.28 | 6.4 µM |  |  | CCc1nnc2c(NC(C)C)nc3cc(F)c(F)cc3n12 | ≤ 32 |
| 0.23 | 14 µM |  |  | CCNc1nc2ccc(F)cc2n2c(C(F)(F)F)nnc12 | 3.2 |
| 0.18 | 3.9 µM |  |  | CCc1nnc2c(NC(C)C)nc3ccc(F)cc3n12 | 3.2 |
| 0.17 | 4.1 µM |  |  | CC(C)Nc1nc2ccccc2n2c(C(F)(F)F)nnc12 | < 10 |
| 0.16 | 6.5 µM |  |  | COc1nnc2c(NC(C)C)nc3ccc(F)cc3n12 | ≤ 32 |
| 0.14 | 0.036 µM |  |  | CCc1nnc2c(N)nc3cc(OC)ccc3n12 | > 32 |
| 0.11 | 3.2 µM |  |  | CCc1nnc2c(NC(C)C)nc3cc(Cl)c(Cl)cc3n12 | ≤ 32 |
| 0.11 | 0.028 µM |  |  | CCc1nnc2c(N)nc3ccc(Cl)cc3n12 | ≤ 3.2 |
| 0.075 | 0.029 µM |  |  | CCc1nnc2c(N)nc3cc(Cl)ccc3n12 | ≤ 3.2 |
| 0.06 | 1.7 µM | 0.5 | 2 µM | CCc1nnc2c(NC(C)C)nc3ccc(Cl)cc3n12 | ≤ 3.2 |
| 0.044 | 4.1 µM |  |  | CCc1nnc2c(NC3CCCCC3)nc3ccc(Cl)cc3n12 | > 32 |
| 0.032 | 60 µM | 6 | > 10 µM | Fc1ccc2nc(NC3CCCCC3)c3nnc(C(F)(F)F)n3c2c1 | > 32 |
| 0.028 | > 100 µM | > 10 | > 10 µM | FC(F)(F)c1nnc2c(NC3CCCCC3)nc3ccc(Cl)cc3n12 | > 32 |
| 0.024 | 2.3 µM | 1 | 1 µM | CC(C)Nc1nc2ccc(Cl)cc2n2c(C(F)(F)F)nnc12 | ≤ 3.2 |
| 0.024 | 3.1 µM |  |  | CC(C)Nc1nc2ccc(Cl)cc2n2c(C(F)(F)C(F)(F)F)nnc12 | 32 |
| 0.02 | 0.89 µM |  |  | CCc1nnc2c(NC3CCCC3)nc3ccc(Cl)cc3n12 | > 32 |
| 0.0055 | 2.1 µM |  |  | FC(F)(F)c1nnc2c(NC3CCCC3)nc3ccc(Cl)cc3n12 | > 32 |

— ChEMBL document CHEMBL1124880 (J Med Chem, 1990)
